The target of test [1] is T1, human CA-XII (Homo sapiens, UniProt O43570).
T1 construct: purchased Creative BioMart CA12-261H
In words: Surface Plasmon Resonance (SPR) binding kinetics to recombinant human CA-XII (Biacore 8K, single-cycle kinetics, 1:1 binding model). As to the method: (§1) G1. Surface Plasmon Resonance Assay Conditions for hCA-IX and hCA-XII
(§2) Surface Plasmon Resonance (SPR) experiments were conducted on a Biacore 8K instrument (Cytiva, Marlborough, MA) to determine the binding kinetics of the compound to recombinant human CA-IX (Acro, CA9-H82E3) and CA-XII (Creative BioMart, CA12-261H) proteins. The ligands were diluted to 10 μg/mL in PBS-P+ buffer (20 mM phosphate buffer, pH 7.4, with 2.7 mM KCl, 137 mM NaCl, and 0.05% Tween 20) and captured on Series S Streptavidin Sensor Chips (Cytiva, 29699621) to 1200-1800 response units (RU) using a flow rate of 5 μL/min and injection times of 180 seconds for human CA-IX and 75 seconds for human CA-XII. Analyte binding was evaluated using a single-cycle kinetics method over 9 analyte concentrations (100-0.39 nM) in PBS-P+ buffer with 1% DMSO using a 50 μL/min. flow rate, 120 second association time, and 1200 second dissociation time. The flow cell temperature was set to 25° C. Analyte binding curves were fit to a 1:1 binding kinetic model in Biacore Insight Evaluation software (version 4.0.8.20368) following reference flow cell subtraction and DMSO correction to derive the association and dissociation binding constants.
For orientation: Surface plasmon resonance follows binding to a sensor surface in real time, without labels.

In test [2] the target is T2, human CA-IX (Homo sapiens, UniProt Q16790).
T2 construct: purchased Acro CA9-H82E3
Nature of the test: Surface Plasmon Resonance (SPR) binding kinetics to recombinant human CA-IX (Biacore 8K, single-cycle kinetics, 1:1 binding model). As to the method:
as §1, §2

Setting [3] is: Chelated Metal: Lu-175, 25° C., pH 7.4, read-out: CAXII KD.
[4] abbreviates: Chelated Metal: Lu-175; SPR, 25° C., pH 7.4; read-out: CAIX KD.
The mark [5] stands for this setting: read-out: CAXII KD, Chelated Metal: Lu-175, 25° C., pH 7.4.
Setting [6] is: read-out: CAIX KD; Chelated Metal: Lu-175; SPR, 25° C., pH 7.4.

Where two headings read alike, the source gives them in different places.

T1 sequence (O43570 25-354): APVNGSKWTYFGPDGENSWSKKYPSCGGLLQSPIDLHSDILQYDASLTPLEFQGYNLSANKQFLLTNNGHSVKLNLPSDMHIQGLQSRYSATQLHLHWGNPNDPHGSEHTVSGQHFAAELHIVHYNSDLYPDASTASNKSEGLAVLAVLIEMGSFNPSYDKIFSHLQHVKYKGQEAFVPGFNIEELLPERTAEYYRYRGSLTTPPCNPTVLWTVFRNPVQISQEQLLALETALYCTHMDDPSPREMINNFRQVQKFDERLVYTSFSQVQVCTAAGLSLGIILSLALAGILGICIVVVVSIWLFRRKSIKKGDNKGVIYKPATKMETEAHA

On to `CCCCNc1c(F)c(S(N)(=O)=O)c(F)c(F)c1S(=O)(=O)CCOCc1cn(CCNC(=O)[C@H]2CN(C(=O)CN3CCN(CC(=O)O)CCN(CC(=O)O)CCN(CC(=O)O)CC3)CCN2C(=O)C[C@H](NC(=O)[C@@H]2COCCN2C(=O)CCCc2ccc(O)cc2)C(=O)O)nn1.[Lu+3]` [Compound 107.54], for which the results for the Kd in test [1] (setting [3]) and in test [2] (setting [4]) were over 10 nM and 2.5 to 10 nM, respectively.

As for `NS(=O)(=O)c1nnc(NC(=O)C23CC(c4cn(CCNC(=O)[C@@H]5CN(C(=O)CN6CCN(CC(=O)O)CCN(CC(=O)O)CCN(CC(=O)O)CC6)CCN5C(=O)C[C@H](Nc5ncc(C(=O)NCC6CC7(CCC7)C6)cn5)C(=O)O)nn4)(C2)C3)s1.[Lu+3]` [Compound 111.9], the dissociation constant (Kd) is over 10 nM in test [1] (setting [3]) and 1 to 2.5 nM in test [2] (setting [4]).

On to `NS(=O)(=O)c1nnc(NC(=O)C23CCC(c4cn(CCNC(=O)[C@@H]5CN(C(=O)CN6CCN(CC(=O)O)CCN(CC(=O)O)CCN(CC(=O)O)CC6)CCN5C(=O)CC[C@H](NC(=O)C[C@H](NC(=O)c5ccc(C6CCCCC6)cc5)C(=O)O)C(=O)O)nn4)(CC2)CC3)s1.[Lu+3]` [Compound 109.55], for which the dissociation constant Kd in test [1] (setting [3]) and in test [2] (setting [4]) was under 1 nM each time.

Consider `NS(=O)(=O)c1nnc(NC(=O)C23CC(c4cn(CCNC(=O)[C@@H]5CN(C(=O)CN6CCN(CC(=O)O)CCN(CC(=O)O)CCN(CC(=O)O)CC6)CCN5C(=O)C[C@H](NC(=O)C[C@H](NC(=O)Cc5n[nH]c6ccc(O)cc56)C(=O)O)C(=O)O)nn4)(C2)C3)s1.[Lu+3]` [Compound 109.32], for which the equilibrium dissociation constant (Kd) in test [1] (setting [3]) is over 10 nM; in test [2] (setting [4]) it was under 1 nM.

Regarding `NS(=O)(=O)c1nnc(NC(=O)C23CC(c4cn(CCNC(=O)[C@@H]5CN(C(=O)CN6CCN(CC(=O)O)CCN(CC(=O)O)CCN(CC(=O)O)CC6)CCN5C(=O)C[C@H](Nc5ncc(C(=O)NCc6ccc(C7CC7)cn6)cn5)C(=O)O)nn4)(C2)C3)s1.[Lu+3]` [Compound 111.2], the equilibrium dissociation constant (Kd) in test [1] (setting [3]) was over 10 nM; in test [2] (setting [4]), 2.5 to 10 nM.

Consider `CC(CCCC(=O)N1CCC(C(N)=O)(C(=O)NCC(=O)NC2(C(=O)NCCn3cc(C45CC(C(=O)Nc6nnc(S(N)(=O)=O)s6)(C4)C5)nn3)CCN(C(=O)CN3CC4(C3)CN(C(=O)CN3CCN(CC(=O)O)CCN(CC(=O)O)CCN(CC(=O)O)CC3)C4)CC2)CC1)(c1ccc(O)cc1)c1ccc(O)cc1.[Lu+3]` [Compound 129.7], for which the Kd in test [1] (setting [3]) was over 10 nM; in test [2] (setting [4]) it was under 1 nM.

Regarding `NS(=O)(=O)c1nnc(NC(=O)C23CC(c4cn(CCNC(=O)[C@@H]5CN(C(=O)CN6CCN(CC(=O)O)CCN(CC(=O)O)CCN(CC(=O)O)CC6)CCN5C(=O)C[C@H](Nc5ncc(C(=O)NCc6n[nH]c7ccccc67)cn5)C(=O)O)nn4)(C2)C3)s1.[Lu+3]` [Compound 111.10], the dissociation constant (Kd) in test [1] (setting [3]) was over 10 nM; in test [2] (setting [4]) it was 2.5 to 10 nM.

For `CC(CCCC(=O)N1CCC(C(N)=O)(C(=O)NCC(=O)N2CCN(C(=O)CC[C@H](C(=O)O)N3CCN(CC(=O)O)CCN(CC(=O)O)CCN(CC(=O)O)CC3)C[C@@H]2C(=O)NCCn2cc(C34CC(C(=O)Nc5nnc(S(N)(=O)=O)s5)(C3)C4)nn2)CC1)(c1ccc(O)cc1)c1ccc(O)cc1.[Lu+3]` [Compound 127.2], the Kd in test [1] (setting [3]) is over 10 nM; in test [2] (setting [4]) it was under 1 nM.

Regarding `NS(=O)(=O)c1nnc(NC(=O)C23CC(c4cn(CCNC(=O)[C@@H]5CN(C(=O)CN6CCN(CC(=O)O)CCN(CC(=O)O)CCN(CC(=O)O)CC6)CCN5C(=O)C[C@H](NC(=O)C[C@H](NC(=O)Cc5n[nH]c6ccccc56)C(=O)O)C(=O)O)nn4)(C2)C3)s1.[Lu+3]` [Compound 109.10], the Kd was 2.5 to 10 nM in test [1] (setting [3]) and under 1 nM in test [2] (setting [4]).

Turning to `CC(CCC(=O)N[C@@H](CC(=O)N[C@@H](CC(=O)N1CCN(C(=O)CN2CCN(CC(=O)O)CCN(CC(=O)O)CCN(CC(=O)O)CC2)CC1C(=O)NCCn1cc(C23CCC(C(=O)Nc4nnc(S(N)(=O)=O)s4)(CC2)C3)nn1)C(=O)O)C(=O)O)(c1ccc(O)cc1)c1ccc(O)cc1.[Lu+3]` (stereo partly shown) [Compound 107.1], the Kd in test [1] (setting [3]) and in test [2] (setting [4]) was under 1 nM each time.

Turning to `NS(=O)(=O)c1nnc(NC(=O)C23CC(c4cn(CCNC(=O)[C@@H]5CN(C(=O)CN6CCN(CC(=O)O)CCN(CC(=O)O)CCN(CC(=O)O)CC6)CCN5C(=O)C[C@H](NC(=O)C[C@H](NC(=O)Cc5n[nH]c6ccc(F)cc56)C(=O)O)C(=O)O)nn4)(C2)C3)s1.[Lu+3]` [Compound 109.11], the Kd in test [1] (setting [3]) was 2.5 to 10 nM; in test [2] (setting [4]), under 1 nM.

Take `CC(CCC(=O)N[C@@H](CC(=O)N[C@@H](CC(=O)N[C@@H](CCCCn1cc(C23CCC(C(=O)Nc4nnc(S(N)(=O)=O)s4)(CC2)C3)nn1)C(=O)N1CCC(NC(=O)CN2CCN(CC(=O)O)CCN(CC(=O)O)CCN(CC(=O)O)CC2)CC1)C(=O)O)C(=O)O)(c1ccc(O)cc1)c1ccc(O)cc1.[Lu+3]` [Compound 100.12]: the Kd in test [1] (setting [3]) and in test [2] (setting [4]) was under 1 nM each time.

Regarding `NS(=O)(=O)c1nnc(NC(=O)C23CC(c4cn(C[C@H]5CN(C(=O)CN6CCN(CC(=O)O)CCN(CC(=O)O)CCN(CC(=O)O)CC6)CCN5C(=O)CNC(=O)C5(C(=O)O)CCN(C(=O)Cc6n[nH]c7ccccc67)CC5)nn4)(C2)C3)s1.[Lu+3]` [Compound 112.17], the Kd in test [1] (setting [3]) is 1 to 2.5 nM; in test [2] (setting [4]), under 1 nM.

Take `NS(=O)(=O)c1nnc(NC(=O)C23CCC(c4cn(CCNC(=O)[C@@H]5CN(C(=O)CN6CCN(CC(=O)O)CCN(CC(=O)O)CCN(CC(=O)O)CC6)CCN5C(=O)CC[C@H](NC(=O)C[C@H](NC(=O)c5n[nH]c6ccc(O)cc56)C(=O)O)C(=O)O)nn4)(CC2)CC3)s1.[Lu+3]` [Compound 109.45]: the equilibrium dissociation constant (Kd) in test [1] (setting [3]) and in test [2] (setting [4]) was under 1 nM in each case.

For the compound `NS(=O)(=O)c1nnc(NC(=O)C23CCC(c4cn(CCNC(=O)[C@@H]5CN(C(=O)CN6CCN(CC(=O)O)CCN(CC(=O)O)CCN(CC(=O)O)CC6)CCN5C(=O)CC[C@H](NC(=O)C[C@H](NCc5ccccc5)C(=O)O)C(=O)O)nn4)(CC2)CC3)s1.[Lu+3]` [Compound 110], the dissociation constant Kd in test [1] (setting [5]) and in test [2] (setting [6]) was under 1 nM each time.

As to `CC(CCC(=O)N[C@@H](CC(=O)N[C@@H](CC(=O)N[C@@H](CCCn1cc(C23CCC(C(=O)Nc4nnc(S(N)(=O)=O)s4)(CC2)CC3)nn1)C(=O)NCCOCCOCCNC(=O)CN1CCN(CC(=O)O)CCN(CC(=O)O)CCN(CC(=O)O)CC1)C(=O)O)C(=O)O)(c1ccc(O)cc1)c1ccc(O)cc1.[Lu+3]` [Compound 100.7], the Kd is 1 to 2.5 nM in test [1] (setting [3]) and under 1 nM in test [2] (setting [4]).

As for `NS(=O)(=O)c1nnc(NC(=O)C23CC(c4cn(CCNC(=O)[C@H]5CNCCN5C(=O)[C@H](CCCCNC(=O)CN5CCN(CC(=O)O)CCN(CC(=O)O)CCN(CC(=O)O)CC5)NC(=O)CC[C@H](NC(=O)c5n[nH]c6ccccc56)C(=O)O)nn4)(C2)C3)s1.[Lu+3]` [Compound 118.3], the Kd in test [1] (setting [3]) and in test [2] (setting [4]) was 2.5 to 10 nM throughout.

Regarding `CC(CCC(=O)N[C@@H](CC(=O)N[C@@H](CC(=O)N1CCN(C(=O)[C@H](CCC(=O)NCCOCCOCCOCCOCCOCCOCCOCCOCCC(=O)N[C@@H](CCCCNC(=O)CCCc2ccc(I)cc2)C(=O)O)NC(=O)CN2CCN(CC(=O)O)CCN(CC(=O)O)CCN(CC(=O)O)CC2)C[C@H]1C(=O)NCCn1cc(C23CC(C(=O)Nc4nnc(S(N)(=O)=O)s4)(C2)C3)nn1)C(=O)O)C(=O)O)(c1ccc(O)cc1)c1ccc(O)cc1.[Lu+3]` (racemic) [Compound 125], the Kd in test [1] (setting [5]) was over 10 nM; in test [2] (setting [6]), 1 to 2.5 nM.

On to `CC(CCC(=O)N[C@@H](CC(=O)N[C@@H](CC(=O)NC1(C(=O)NCCOCCOCCNC(=O)CN2CCN(CC(=O)O)CCN(CC(=O)O)CCN(CC(=O)O)CC2)CN(C(=O)Cn2cc(CCCC(=O)Nc3nnc(S(N)(=O)=O)s3)nn2)C1)C(=O)O)C(=O)O)(c1ccc(O)cc1)c1ccc(O)cc1.[Lu+3]` [Compound 103], for which the Kd in test [1] (setting [5]) fell in the range of 2.5 to 10 nM; in test [2] (setting [6]), 1 to 2.5 nM.

As to `CC(CCC(=O)N[C@@H](CC(=O)N[C@@H](CC(=O)N[C@@H](CCCn1cc(C23CC(C(=O)Nc4nnc(S(N)(=O)=O)s4)(C2)C3)nn1)C(=O)NCCOCCOCCNC(=O)CN1CCN(CC(=O)O)CCN(CC(=O)O)CCN(CC(=O)O)CC1)C(=O)O)C(=O)O)(c1ccc(O)cc1)c1ccc(O)cc1.[Lu+3]` [Compound 100.2], the Kd was over 10 nM in test [1] (setting [3]) and 1 to 2.5 nM in test [2] (setting [4]).

As for `CC(CC(=O)N1CCC(C(N)=O)(C(=O)NCC(=O)N[C@@H](CCCCn2cc(CCCC(=O)Nc3nnc(S(N)(=O)=O)s3)nn2)C(=O)NCCOCCOCCNC(=O)CN2CCN(CC(=O)O)CCN(CC(=O)O)CCN(CC(=O)O)CC2)CC1)(c1ccc(O)cc1)c1ccc(O)cc1.[Lu+3]` [Compound 102.2], the equilibrium dissociation constant (Kd) in test [1] (setting [3]) is over 10 nM; in test [2] (setting [4]), 2.5 to 10 nM.

On to `N[C@@H](CC(=O)N[C@@H](CCC(=O)N1CCN(C(=O)CN2CCN(CC(=O)O)CCN(CC(=O)O)CCN(CC(=O)O)CC2)C[C@H]1C(=O)NCCn1cc(C23CCC(C(=O)Nc4nnc(S(N)(=O)=O)s4)(CC2)CC3)nn1)C(=O)O)C(=O)O.[Lu+3]` [Compound 109.60], for which the results for the Kd in test [1] (setting [3]) and in test [2] (setting [4]) were 1 to 2.5 nM and under 1 nM, respectively.

For the compound `CC(CCC(=O)N[C@@H](CC(=O)N[C@@H](CC(=O)N1CCN(C(=O)CN2CCN(CC(=O)O)CCN(CC(=O)O)CCN(CC(=O)O)CC2)C[C@H]1C(=O)NCCn1cc(C23CC(C(=O)Nc4nnc(S(N)(=O)=O)s4)(C2)C3)nn1)C(=O)O)C(N)=O)(c1ccc(O)cc1)c1ccc(O)cc1.[Lu+3]` [Compound 107.50], the Kd in test [1] (setting [3]) is over 10 nM; in test [2] (setting [4]), under 1 nM.

For orientation: Kd means the constant that tells how readily two partners part at equilibrium.

The record behind these values is US20260325685A1, “Radiopharmaceutical Compositions Targeting Carbonic Anhydrase IX and Uses Thereof” (RayzeBio, Inc., priority 2023, published 2026).
